# Measured values reported in US6914045B2, “Glycopeptide antibiotics” (Wyeth Holdings Corporation, priority 2001, dated 2005).
# Legend:
# [1] = tested on: Staphylococcus aureus-SMITH (GC 4543); experiment: acute lethal infection in mice; assay type: in vivo; conditions: acute lethal infection, female CD-1 mice, intraperitoneal challenge, intravenous 30 min. after infection, 7 day survival
# In short: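 Mice (female CD-1, 20+/−2 gm) receive bacteria ip in broth or hog gastric mucin, then test agent iv after 30 min. Median effective dose is calculated from 7 day survival pooled across 3 tests.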
# [2] = tested on: Escherichia coli; experiment: in vitro antibacterial evaluation, MIC by broth dilution; assay type: cell-based; conditions: 18 hours at 35° C.
# [3] = tested on: Streptococcus sp.; experiment: as above; assay type: cell-based; conditions: broth dilution, 18 hours at 35° C.
# In short: (§1)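 Broth dilution per NCCLS standard M7-A2 in Muller-Hinton II […], with an inoculum of 5×10^5 CFU/mL and antibiotic spanning 64-0.06 μg/mL. The MIC is the lowest concentration that inhibits growth of the organism.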
# [4] = tested on: Enterococcus sp.; experiment: as above; assay type: cell-based; conditions: broth dilution, 18 hours at 35° C.
# In short: as §1
# [5] = tested on: Staphylococcus sp.; experiment: as above; assay type: cell-based; conditions: broth dilution, 18 hours at 35° C.
# In short: as §1
smiles,measurement,setting,value
"CC(c1ccccc1)C1NC(=O)CNC(=O)C(CO)NC(=O)C(C(O)C2CNC(=N)N2C2OC(CO)C(O)C(O)C2O)NC(=O)C(C(O)C2CNC(=N)N2)NC(=O)C(Cc2ccc(OC3OC(CO)C(OC4OC(COCc5ccc(OCc6ccccc6)cc5)C(O)C(O)C4O)C(O)C3O)cc2)NC1=O (stereo not drawn) [Example 231, Cyclo[glycyl-β-methylphenylalanyl-O-[4-O-[6-O-[4-(phenylmethoxy)benzyl]hexopyranosyl]-hexopyranosyl]tyrosyl-3-(2-iminoimidazolidin-4-yl)seryl-3-(3-hexopyranosyl-2-iminoimidazolidin-4-yl)serylseryl]]","median effective dose (ED50), Staphylococcus aureus-SMITH (GC 4543)",[1],0.25 mg/kg
same,MIC Escherichia coli (ATCC 25922),[2],>128 µg/mL
same,MIC Escherichia coli (GC 4559),[2],>128 µg/mL
same,MIC Escherichia coli (GC 4560),[2],0.5 to 2 µg/mL
same,MIC Streptococcus agalactiae (GC 4564),[3],<0.06 µg/mL
same,MIC Streptococcus pneumoniae (ATCC 6301),[3],<0.06 µg/mL
same,MIC Streptococcus pneumoniae (GC 1894),[3],<0.06 µg/mL
same,MIC Streptococcus pneumoniae (GC 4565),[3],<0.06 µg/mL
same,MIC Streptococcus pyogenes (GC 4563),[3],<0.06 µg/mL
same,MIC Streptococcus pneumoniae (ATCC 6301),"[3]; inoculum 5×10^5 CFU/mL, strain ATCC 6301",<0.06 µg/mL
same,MIC Streptococcus pneumoniae (GC 1894),"[3]; inoculum 5×10^5 CFU/mL, strain GC 1894",<0.06 µg/mL
same,MIC Streptococcus pyogenes (GC 4563),"[3]; inoculum 5×10^5 CFU/mL, strain GC 4563",<0.06 µg/mL
same,MIC Streptococcus agalactiae (GC 4564),"[3]; inoculum 5×10^5 CFU/mL, strain GC 4564",<0.06 µg/mL
same,MIC Streptococcus pneumoniae (GC 4565),"[3]; inoculum 5×10^5 CFU/mL, strain GC 4565",<0.06 µg/mL
same,MIC Enterococcus avium (GC 4558),[4],2 to 4 µg/mL
same,MIC Enterococcus faecalis (ATCC 29212),[4],4 µg/mL
same,MIC Enterococcus faecalis (GC 2242),[4],4 µg/mL
same,MIC Enterococcus faecalis (GC 2691),[4],2 to 4 µg/mL
same,MIC Enterococcus faecalis (GC 3059),[4],2 to 4 µg/mL
same,MIC Enterococcus faecalis (GC 4552),[4],4 µg/mL
same,MIC Enterococcus faecalis (GC 4553),[4],4 µg/mL
same,MIC Enterococcus faecalis (GC 4554),[4],4 µg/mL
same,MIC Enterococcus faecalis (GC 6189),[4],2 to 4 µg/mL
same,MIC Enterococcus faecium (GC 2243),[4],4 µg/mL
same,MIC Enterococcus faecium (GC 4556),[4],4 µg/mL
same,MIC Enterococcus faecium (GC 4557),[4],1 to 2 µg/mL
same,MIC Enterococcus faecalis (ATCC 29212),"[4]; inoculum 5×10^5 CFU/mL, strain ATCC 29212",4 µg/mL
same,MIC Enterococcus faecalis (GC 2242),"[4]; inoculum 5×10^5 CFU/mL, strain GC 2242",4 µg/mL
same,MIC Enterococcus faecium (GC 2243),"[4]; inoculum 5×10^5 CFU/mL, strain GC 2243",4 µg/mL
same,MIC Enterococcus faecalis (GC 2691),"[4]; inoculum 5×10^5 CFU/mL, strain GC 2691",2 to 4 µg/mL
same,MIC Enterococcus faecalis (GC 3059),"[4]; inoculum 5×10^5 CFU/mL, strain GC 3059",2 to 4 µg/mL
same,MIC Enterococcus faecalis (GC 4552),"[4]; inoculum 5×10^5 CFU/mL, strain GC 4552",4 µg/mL
same,MIC Enterococcus faecalis (GC 4553),"[4]; inoculum 5×10^5 CFU/mL, strain GC 4553",4 µg/mL
same,MIC Enterococcus faecalis (GC 4554),"[4]; inoculum 5×10^5 CFU/mL, strain GC 4554",4 µg/mL
same,MIC Enterococcus faecium (GC 4556),"[4]; inoculum 5×10^5 CFU/mL, strain GC 4556",4 µg/mL
same,MIC Enterococcus faecium (GC 4557),"[4]; inoculum 5×10^5 CFU/mL, strain GC 4557",1 to 2 µg/mL
same,MIC Enterococcus avium (GC 4558),"[4]; inoculum 5×10^5 CFU/mL, strain GC 4558",2 to 4 µg/mL
same,MIC Enterococcus faecalis (GC 6189),"[4]; inoculum 5×10^5 CFU/mL, strain GC 6189",2 to 4 µg/mL
same,MIC Coagulase Negative Staphylococcus (GC 4547),[5],1 to 2 µg/mL
same,MIC Coagulase Negative Staphylococcus (GC 4548),[5],0.5 to 1 µg/mL
same,MIC Coagulase Negative Staphylococcus (GC 4549),[5],0.25 to 0.5 µg/mL
same,MIC Coagulase Negative Staphylococcus (GC 4551),[5],1 µg/mL
same,MIC Coagulase Negative Staphylococcus (GC 6257),[5],0.5 to 1 µg/mL
same,MIC Staphylococcus aureus (ATCC 29213),[5],1 to 4 µg/mL
same,MIC Staphylococcus aureus (GC 1131),[5],2 to 4 µg/mL
same,MIC Staphylococcus aureus (GC 3051),[5],1 to 2 µg/mL
same,MIC Staphylococcus aureus (GC 3053),[5],1 to 2 µg/mL
same,MIC Staphylococcus aureus (GC 4541),[5],1 to 4 µg/mL
same,MIC Staphylococcus aureus (GC 4542),[5],2 to 4 µg/mL
same,MIC Staphylococcus aureus (GC 4544),[5],2 to 4 µg/mL
same,MIC Staphylococcus aureus (GC 4545),[5],1 to 4 µg/mL
same,MIC Staphylococcus aureus-SMITH (GC 4543),[5],2 µg/mL
same,MIC Staphylococcus haemolyticus (GC 4546),[5],1 to 4 µg/mL
same,MIC Staphylococcus aureus (ATCC 29213),[5]; strain ATCC 29213,1 to 4 µg/mL
same,MIC Staphylococcus aureus (GC 1131),[5]; strain GC 1131,2 to 4 µg/mL
same,MIC Staphylococcus aureus (GC 3051),[5]; strain GC 3051,1 to 2 µg/mL
same,MIC Staphylococcus aureus (GC 3053),[5]; strain GC 3053,1 to 2 µg/mL
same,MIC Staphylococcus aureus (GC 4541),[5]; strain GC 4541,1 to 4 µg/mL
same,MIC Staphylococcus aureus (GC 4542),[5]; strain GC 4542,2 to 4 µg/mL
same,MIC Staphylococcus aureus-SMITH (GC 4543),[5]; strain GC 4543,2 µg/mL
same,MIC Staphylococcus aureus (GC 4544),[5]; strain GC 4544,2 to 4 µg/mL
same,MIC Staphylococcus aureus (GC 4545),[5]; strain GC 4545,1 to 4 µg/mL
same,MIC Staphylococcus haemolyticus (GC 4546),[5]; strain GC 4546,1 to 4 µg/mL
same,MIC Coagulase Negative Staphylococcus (GC 4547),[5]; strain GC 4547,1 to 2 µg/mL
same,MIC Coagulase Negative Staphylococcus (GC 4548),[5]; strain GC 4548,0.5 to 1 µg/mL
same,MIC Coagulase Negative Staphylococcus (GC 4549),[5]; strain GC 4549,0.25 to 0.5 µg/mL
same,MIC Coagulase Negative Staphylococcus (GC 4551),[5]; strain GC 4551,1 µg/mL
same,MIC Coagulase Negative Staphylococcus (GC 6257),[5]; strain GC 6257,0.5 to 1 µg/mL
